Experimental findings from patent publication US7851637B2, “Compounds and methods for inhibiting the interaction of BCL proteins with binding partners” (Infinity Pharmaceuticals, Inc., priority 2004, dated 2010) are described below.

In test [1] the test system is Human Pancreatic Cancer Cell Line Panc1. Put plainly: Cell death assay (propidium iodide/Hoechst) in Panc1 cells with or without camptothecin. Particulars: 72 hours, % cell death by propidium iodide/Hoechst. Type of test: cell-based. The procedure: When RL-cells are exposed to isoxazolidine compounds of the present invention, the inhibitors show a dose-dependent cell-killing in the Alamar blue cytoxicity assay with IC50 values of from about 100 μM to about 1 μM (See Examples). When Panc1 cells are exposed to the isoxazolidine compounds of the present invention in combination with camptothecin, the inhibitors show a synergistic dose-dependent cell killing in the propidium iodide exclusion cell survival assay with IC50 values of from about 100 μM to about 1 μM (See Examples).
• 1) Compounds were serially diluted in DMSO from a 9 mM stock to a final concentration of 0.004 mM in a 96 well plate. • 2) Assay plates were prepared by diluting compounds 310 fold into 150 ul of medium containing 10,000 cells/well, with or without 3 uM Camptothecin, resulting in a final DMSO concentration of 0.3% and a compound concentration range from 29 uM to […] for each compound. • 3) Assay plates were incubated at 37 C, 5% CO2 for 72 hours. • 4) After 72 hours, propidium iodide and Hoechst dye were added to each well according to manufacturer's instruction. • 5) Plates were imaged on a fluorescence microscope at wavelengths Ex560/Em650 (Propidium iodide) and Ex360/Em465 (Hoechst) • 6) MetaMorph imaging software was used to determine % cell death by dividing the number of propidium iodide stained cells (dead cells) by the number of Hoechst stained cells (all cells), multipled by 100, in each field.
Panc1 invitro cellular data is presented below for various compounds of the invention.

The target in test [2] is Bcl-xL (Homo sapiens, UniProt Q07817). As to the kind of experiment: Bcl-xL binding affinity analysis (fluorescence polarization binding assay). Further details: scale not given here. In a few lines:
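In vitro fluorescence polarization binding assay measuring compound binding to human Bcl-xL.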

For test [3], the target named is Bcl-2 (Homo sapiens, UniProt P10415). As to the kind of experiment: Bcl-2 binding affinity analysis (fluorescence polarization binding assay). In a few lines:
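Binding to human Bcl-2 quantified in vitro by a fluorescence polarization assay.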

The mark [4] stands for this setting: Homo sapiens, PANC-1, without camptothecin, read-out: Panc1 − Cpt IC50.
The mark [5] stands for this setting: with 3 uM Camptothecin, read-out: Panc1 + Cpt IC50.

Where two headings read alike, the source gives them in different places.

Sequence of Bcl-xL (Q07817 whole entry): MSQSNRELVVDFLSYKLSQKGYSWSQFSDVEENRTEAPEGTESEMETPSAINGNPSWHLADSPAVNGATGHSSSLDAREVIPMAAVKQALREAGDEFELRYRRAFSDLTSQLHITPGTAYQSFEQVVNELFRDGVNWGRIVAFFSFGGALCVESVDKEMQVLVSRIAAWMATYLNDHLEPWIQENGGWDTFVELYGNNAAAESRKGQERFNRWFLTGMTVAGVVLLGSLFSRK
Sequence of Bcl-2 (P10415 whole entry): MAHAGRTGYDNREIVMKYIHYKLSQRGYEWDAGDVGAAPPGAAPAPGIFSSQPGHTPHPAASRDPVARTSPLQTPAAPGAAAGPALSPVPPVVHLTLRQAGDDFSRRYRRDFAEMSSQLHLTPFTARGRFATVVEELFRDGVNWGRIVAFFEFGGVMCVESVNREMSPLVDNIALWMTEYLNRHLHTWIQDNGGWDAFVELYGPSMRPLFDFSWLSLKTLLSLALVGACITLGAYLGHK

Regarding `CNC(=O)c1ccccc1-c1cccc(CN2O[C@@H](CO)[C@@H]([C@H](C)O)[C@H]2C(=O)N[C@H]2C[C@H]3C[C@@H]([C@@H]2C)C3(C)C)c1` [Compound 89], the IC50 in test [1] (setting [4]) is 1800 to 2500 nM; in test [1] (setting [5]), 1300 to 1800 nM.

Regarding `C[C@@H]1[C@@H](NC(=O)[C@@H]2[C@H]([C@H](C)O)[C@H](CO)ON2Cc2cccc(C#CC3(NC(=O)C4CCN(C)CC4)CCCCC3)c2)CC2C[C@@H]1C2(C)C` [Compound 90], the figures for the IC50 in test [1] (setting [4]) and in test [1] (setting [5]) were over 2500 nM and 1300 to 1800 nM, respectively.

As for `COC(=O)CCNC(=O)c1cccc(-c2cccc(CN3O[C@@H](CO)[C@@H]([C@H](C)O)[C@H]3C(=O)N[C@H]3C[C@H]4C[C@@H]([C@@H]3C)C4(C)C)c2)c1` [Compound 149], the “Bcl-XL binding affinity Ki” value in test [2] is recorded as “♯”. Also, the IC50 in test [1] (setting [4]) is over 2500 nM; in test [1] (setting [5]), 1800 to 2500 nM. The same compound registered a Ki in test [3] of under 800 nM.

Regarding `COc1ccc(COc2c(CN3O[C@@H](CO)[C@@H]([C@H](C)O)[C@H]3C(=O)N[C@H]3C[C@H]4C[C@@H]([C@@H]3C)C4(C)C)cccc2-c2ccc(C(=O)N(C)C)cc2)cc1` [Compound 166], the “Bcl-XL binding affinity Ki” value in test [2] is reported as “♯”. Further, the IC50 in test [1] (setting [4]) is over 2500 nM; in test [1] (setting [5]) it was under 1300 nM. This compound displayed a Ki in test [3] of under 800 nM.

Regarding `CC(C)CC(CN(C)C)N(Cc1cccc(CN2OC(CO)C(C(C)O)C2C(=O)NC2CC3CC(C2C)C3(C)C)c1)CC1CCCCC1` (stereo not shown) [Compound 303], in test [2], the “Bcl-XL binding affinity Ki” value is recorded as “♯”. Moreover, the IC50 in test [1] (setting [4]) and in test [1] (setting [5]) was over 2500 nM throughout. In test [3], this compound returned a Ki of under 800 nM.

Consider `COc1cccc(F)c1CN(Cc1cccc(CN2OC(CO)C(C(C)O)C2C(=O)NC2CC3CC(C2C)C3(C)C)c1)C(CC(C)C)CN(C)C` (stereo not shown) [Compound 305], for which the “Bcl-XL binding affinity Ki” value in test [2] was “♯”. For the same compound, the 50% inhibitory concentration (IC50) is 1300 to 1800 nM in test [1] (setting [4]) and under 1300 nM in test [1] (setting [5]). In test [3], this compound yielded a Ki of under 800 nM.

Consider `CC(C)C[C@@H](CN(C)C)N(Cc1cccc(CN2O[C@@H](CO)C([C@H](C)O)[C@H]2C(=O)N[C@H]2C[C@H]3C[C@@H]([C@@H]2C)C3(C)C)c1)Cc1c(O)cccc1F` (stereo partly shown) [Compound 306], for which the “Bcl-XL binding affinity Ki” value in test [2] is “♯”. Also, the IC50 in test [1] (setting [4]) was over 2500 nM; in test [1] (setting [5]) it was 1300 to 1800 nM. Moreover, in test [3], the Ki is under 800 nM.

Regarding `CC(C)CC(CN(C)C)N(Cc1cccc(CN2OC(CO)C(C(C)O)C2C(=O)NC2CC3CC(C2C)C3(C)C)c1)Cc1c(F)cccc1Cl` (stereo not shown) [Compound 307], the “Bcl-XL binding affinity Ki” value in test [2] is on record as “♯”. The IC50 in test [1] (setting [4]) and in test [1] (setting [5]) was over 2500 nM each time. This compound had a Ki in test [3] of under 800 nM.

Turning to `CC(C)CC(CN(C)C)N(Cc1cccc(O)c1)Cc1cccc(CN2OC(CO)C(C(C)O)C2C(=O)NC2CC3CC(C2C)C3(C)C)c1` (stereo not shown) [Compound 310], in test [2], the “Bcl-XL binding affinity Ki” value is “♯”. Moreover, the IC50 in test [1] (setting [4]) is over 2500 nM; in test [1] (setting [5]), 1800 to 2500 nM. In test [3], the Ki is under 800 nM.

Turning to `CC(C)C[C@@H](CN(C)C)N(Cc1cccc(CN2O[C@@H](CO)C([C@H](C)O)[C@H]2C(=O)N[C@H]2C[C@H]3C[C@@H]([C@@H]2C)C3(C)C)c1)Cc1c(Cl)cccc1Cl` (stereo partly shown) [Compound 317], the “Bcl-XL binding affinity Ki” value in test [2] is reported as “♯”. Also, the IC50 in test [1] (setting [4]) and in test [1] (setting [5]) was over 2500 nM each time. The Ki in test [3] was under 800 nM.

Regarding `CC(C)CC(CN(C)C)N(Cc1cccc(CN2OC(CO)C(C(C)O)C2C(=O)NC2CC3CC(C2C)C3(C)C)c1)Cc1ccccc1I` (stereo not shown) [Compound 318], in test [2], the “Bcl-XL binding affinity Ki” value is given as “♯”. Moreover, the half-inhibitory concentration (IC50) in test [1] (setting [4]) and in test [1] (setting [5]) was over 2500 nM each time. The same compound gave a Ki in test [3] of under 800 nM.

`COc1cccc(CN(Cc2cccc(CN3OC(CO)C(C(C)O)C3C(=O)NC3CC4CC(C3C)C4(C)C)c2)C(CC(C)C)CN(C)C)c1` (stereo not shown) [Compound 319]: the “Bcl-XL binding affinity Ki” value in test [2] was “♯”. Moreover, the values for the IC50 in test [1] (setting [4]) and in test [1] (setting [5]) were 1800 to 2500 nM and 1300 to 1800 nM, respectively. The compound further came in with an inhibition constant Ki in test [3] of under 800 nM.

Turning to `CC(C)CNC(=O)[C@@H]1[C@H]([C@H](C)O)[C@H](CO)ON1Cc1cccc(CN(Cc2ccccc2)[C@@H](CC(C)C)CN(C)C)c1` [Compound 540], the “Bcl-XL binding affinity Ki” value in test [2] is “♯”. This compound showed a Ki in test [3] of 6000 to 50000 nM.

For `CC(C)C[C@@H](CN(C)C)N(Cc1ccccc1)Cc1cccc(CN2O[C@@H](CO)[C@@H]([C@H](C)O)[C@H]2C(=O)NCc2ccccc2)c1` [Compound 542], the “Bcl-XL binding affinity Ki” value in test [2] was “♯”. For the same compound, in test [3], the inhibition constant (Ki) fell in the range of 800 to 6000 nM.

On to `CC(C)C[C@@H](CN(C)C)N(Cc1ccccc1)Cc1cccc(CN2O[C@@H](CO)[C@@H]([C@H](C)O)[C@H]2C(=O)NCCCNC(=O)OC(C)(C)C)c1` [Compound 543], for which, in test [2], the “Bcl-XL binding affinity Ki” value was “♯”. In addition, the Ki in test [3] was 6000 to 50000 nM.

For `C[C@@H]1[C@@H](NC(=O)[C@@H]2[C@H]([C@H](C)O)[C@H](CO)ON2CCCCN(CCCc2ccccc2)CCN(C)C)C[C@H]2C[C@@H]1C2(C)C` [Compound 545], the “Bcl-XL binding affinity Ki” value in test [2] is listed as “♯”. The Ki in test [3] is 800 to 6000 nM.

As for `C[C@@H]1[C@@H](NC(=O)[C@@H]2[C@H]([C@H](C)O)[C@H](CO)ON2CCCCN(CCc2ccccc2)CCN(C)C)C[C@H]2C[C@@H]1C2(C)C` [Compound 546], the “Bcl-XL binding affinity Ki” value in test [2] was “♯”. In addition, the Ki in test [3] is 800 to 6000 nM.

As to `C[C@@H]1[C@@H](NC(=O)[C@@H]2[C@H]([C@H](C)O)[C@H](CO)ON2CCCCN(CCN(C)C)Cc2ccccc2)C[C@H]2C[C@@H]1C2(C)C` [Compound 547], in test [2], the “Bcl-XL binding affinity Ki” value is on record as “♯”. For the same compound, in test [3], the Ki was in the range of 800 to 6000 nM.

Turning to `C[C@@H]1[C@@H](NC(=O)[C@@H]2[C@H]([C@H](C)O)[C@H](CO)ON2CCCCN(CCN(C)C)Cc2ccccc2Cl)C[C@H]2C[C@@H]1C2(C)C` [Compound 549], in test [2], the “Bcl-XL binding affinity Ki” value is listed as “♯”. This compound also returned an inhibitory constant (Ki) in test [3] of 800 to 6000 nM.

Take `C[C@@H]1[C@@H](NC(=O)[C@@H]2[C@H]([C@H](C)O)[C@H](CO)ON2CCCCN(CCN(C)C)Cc2ccccc2F)C[C@H]2C[C@@H]1C2(C)C` [Compound 550]: the “Bcl-XL binding affinity Ki” value in test [2] is given as “♯”. The Ki in test [3] fell in the range of 800 to 6000 nM.

On to `C[C@@H]1[C@@H](NC(=O)[C@@H]2[C@H]([C@H](C)O)[C@H](CO)ON2CCCCN(CCN(C)C)Cc2ccccc2-c2ccccc2)C[C@H]2C[C@@H]1C2(C)C` [Compound 551], for which, in test [2], the “Bcl-XL binding affinity Ki” value is “♯”. In addition, the Ki in test [3] was under 800 nM.

For `CC(C)C[C@@H](CN(C)C)NCc1cccc(CN2O[C@@H](CO)C([C@H](C)O)[C@H]2C(=O)N[C@H]2C[C@H]3C[C@@H]([C@@H]2C)C3(C)C)c1` (stereo partly shown) [Compound 552], the “Bcl-XL binding affinity Ki” value in test [2] is “♯”. The compound also returned a Ki in test [3] of 800 to 6000 nM.

In the case of `C[C@@H]1[C@@H](NC(=O)[C@@H]2[C@H]([C@H](C)O)[C@H](CO)ON2CCCCN(CCN(C)C)CC2CCCCC2)C[C@H]2C[C@@H]1C2(C)C` [Compound 553], in test [2], the “Bcl-XL binding affinity Ki” value is listed as “♯”. Besides, in test [3], the inhibition constant Ki fell in the range of 800 to 6000 nM.

In the case of `C[C@@H]1[C@@H](NC(=O)[C@@H]2[C@H]([C@H](C)O)[C@H](CO)ON2Cc2cccc(NCCCN(C)C)c2)C[C@H]2C[C@@H]1C2(C)C` [Compound 582], the “Bcl-XL binding affinity Ki” value in test [2] was “♯”. The same compound had a Ki in test [3] of under 800 nM.

For the compound `C[C@@H]1[C@@H](NC(=O)[C@@H]2[C@H]([C@H](C)O)[C@H](CO)ON2Cc2cccc(N(CCCN(C)C)CCCN(C)C)c2)C[C@H]2C[C@@H]1C2(C)C` [Compound 583], in test [2], the “Bcl-XL binding affinity Ki” value is “♯”. The same compound registered a Ki in test [3] of under 800 nM.
